Measured values as given in BindingDB's records for doi:10.1021/jm950655o (University of Arizona, 1996).

Target: Delta-type opioid receptor (Cavia porcellus)
Experiment: Inhibition of binding [3H]cyclo[D-Pen2,p-Cl,-Phe4,D-Pen5] enkephalin to Opioid receptor delta 1 of guinea pig brain membrane (GPB) homogenates.

CC[C@H](C)[C@H](NC(=O)[C@H](CCCN=C(N)N)NC(=O)[C@H](CCCN=C(N)N)NC(=O)[C@H](CC(C)C)NC(=O)[C@H](Cc1ccccc1)NC(=O)[C@H](Cc1ccc(O)cc1)NC(=O)CNC(=O)[C@@H](N)Cc1ccc(O)cc1)C(=O)N[C@@H](CCCN=C(N)N)C(=O)N1CCC[C@H]1C(=O)N[C@@H](CCCCN)C(N)=O
IC50: > 10 µM
